B1: free OVA: Ovalbumin, the model antigen, given soluble (protein, UniProt P01012 2-386, looked up)
Ovalbumin: GSIGAASMEFCFDVFKELKVHHANENIFYCPIAIMSALAMVYLGAKDSTRTQINKVVRFDKLPGFGDSIEAQCGTSVNVHSSLRDILNQITKPNDVYSFSLASRLYAEERYPILPEYLQCVKELYRGGLEPINFQTAADQARELINSWVESQTNGIIRNVLQPSSVDSQTAMVLVNAIVFKGLWEKAFKDEDTQAMPFRVTEQESKPVQMMYQIGLFRVASMASEKMKILELPFASGTMSMLVLLPDEVSGLEQLESIINFEKLTEWTSSNVMEERKIKVYLPRMKMEEKYNLTSVLMAMGITDVFSSSANLSGISSAESLKISQAVHAAHAEINEAGREVVGSAEAGVDAASVSEEFRADHPFLFCIKHIATNAVLFFGRCVSP

Test system: bone marrow-derived dendritic cells (BMDCs)
Test: BMDC surface marker expression by FACS
Type: cell-based, mouse
Procedure: Bone marrow-derived dendritic cells (BMDCs) were generated as described by Zanoni et al. Generation of mouse bone marrow-derived dendritic cells (BM-DCs) (2009). Briefly, bone marrow progenitor cells were isolated from the femur of C57BL/6J mouse and cultured with media containing 20 ng/ml of GM-CSF. Cells were replenished with fresh media after 5 days of culture and collected after 48 hours of media replenishment. Naïve CD4 T cells and T cells were collected from OT-II splenocytes by using naïve CD4 T cell or CD3 T cell isolation kit (STEMCELL Technologies), respectively.
When ready for flow cytometry (FACS) analysis, cells were transferred to a 96-well U-bottom plate and spun at 500 g for 5 minutes. […]
FACS was performed by either LSR-II (Becton Dickinson) or Attune NxT flow cytometer. […] All FACS data was analyzed on FlowJo software (Tree Star Inc., Ashland, Oreg.).
DCs are one of the best antigen presenting cells that express costimulatory molecules and present antigens, which are modulated by mTOR signaling and antigen processing, respectively. […] DCs from the bone marrow (BMDCs) were harvested and treated with 100 ng/ml of free RAPA or 2 μg/ml of free OVA for either 72 hours or for 24 hours and analyzed by FACS. In all following experiments, BMDCs were gated on CD11c+, live cells, and surface markers of BMDCs were analyzed by flow cytometry. […]

Molecule	Expression of surface markers PD-L1, CD80, CD86, and MHC II (free RAPA 100 ng/ml, 72 hours compared to 24 hours)	Expression of surface markers PD-L1, CD80, CD86, and MHC II (free OVA 2 μg/ml, 72 hours vs 24 hours)
CO[C@H]1C[C@@H]2CC[C@@H](C)[C@@](O)(O2)C(=O)C(=O)N2CCCC[C@H]2C(=O)O[C@H]([C@H](C)C[C@@H]2CC[C@@H](O)[C@H](OC)C2)CC(=O)[C@H](C)/C=C(\C)[C@@H](O)[C@@H](OC)C(=O)[C@H](C)C[C@H](C)/C=C/C=C/C=C/1C [free RAPA, Rapamycin]	diminished expression of surface markers	–
B1	–	no differences were observed

Source: patent US11517628B2, “Particles for spatiotemporal release of agents” (Yale University, priority 2018, dated 2022)
